# Reference: publication PMC6749521, “The Effect of Flavonoid Aglycones on the CYP1A2, CYP2A6, CYP2C8 and CYP2D6 Enzymes Activity” (Molecules, 2019)
# Tests used:
# CYP3A4 = tested on: CYP3A4; design: method as in PMID 30301254; conditions: statistical significance p < 0.1; cited from earlier work
# CYP1A2 [1] = tested on: CYP1A2; design: method as in ref 28 (Chang et al.); conditions: ref 28 (Chang et al.); read-out: Inhibition constant, competitive inhibition of CYP1A2-mediated 7-ethoxyresorufin O-dealkylation; cited from earlier work
# CYP1A2 [2] = biological target: T1, CYP1A2 (Homo sapiens, UniProt P05177); experiment: CYP1A2 enzyme activity, phenacetin O-deethylation (MDI, TDI, DI assays), recombinant baculosomes
# T1 sequence (P05177 1-516): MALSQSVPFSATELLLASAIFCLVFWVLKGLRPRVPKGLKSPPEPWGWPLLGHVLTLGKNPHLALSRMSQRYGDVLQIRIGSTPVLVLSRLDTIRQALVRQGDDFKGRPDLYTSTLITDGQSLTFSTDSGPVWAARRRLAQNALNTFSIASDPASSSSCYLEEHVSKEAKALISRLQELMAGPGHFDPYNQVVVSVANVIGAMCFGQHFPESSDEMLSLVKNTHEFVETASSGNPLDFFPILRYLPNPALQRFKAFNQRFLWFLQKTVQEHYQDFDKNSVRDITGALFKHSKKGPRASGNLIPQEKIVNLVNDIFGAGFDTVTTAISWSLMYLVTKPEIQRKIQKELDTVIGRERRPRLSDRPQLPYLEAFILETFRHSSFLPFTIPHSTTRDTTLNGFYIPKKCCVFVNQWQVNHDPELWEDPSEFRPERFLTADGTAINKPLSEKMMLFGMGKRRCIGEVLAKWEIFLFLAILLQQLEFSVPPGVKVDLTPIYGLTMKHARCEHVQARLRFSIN
# Method: (§1) The recombinant baculosomes with hyperexpressed cytochromes P450 (1A2, 2A6, 2C8, and 2D6) and coexpressed NADPH cytochrome P450 reductase and cytochrome b5 were used as a source of enzyme. Baculosomes were commercially obtained from Thermo Fisher Scientific (Waltham, MA, USA), and all other chemicals from Sigma-Aldrich if not otherwise indicated. A 1.0 M solution phosphate buffer of pH 7.4 was prepared in house. NADPH generating system was prepared of 0.1 M glucose-6-phosphate, 10 mg mL^−1 NADP^+, and 1000 IU mL^−1 glucose-6-phosphate dehydrogenase in ratio 100:50:2 (v/v/v).
# Phenacetine O-deethylation was used as a marker reaction for monitoring CYP1A2 enzyme activity (Figure 2). Incubations of 100 µL were conducted at the temperature of 37 °C. The pH of the incubation mixture was set at 7.4 using a potassium phosphate buffer (final concentration 50 mM). The total amount of CYP1A2 enzyme was 5 pmol, and the final concentration of substrate was 150 µM. Residual activity was determined by incubating the flavonoid (1 µM) with phenacetine as a substrate for 15 min, with or without preincubation, depending of the type of inhibition assay. Reactions were started by the addition of 15 µL of NADPH generating system, while the reactions were stopped by the addition of 1 mL 1% formic acid in acetonitrile. After centrifugation (10 min, 1900× g), the clear solution was transferred to a vial for HPLC analysis.
# HPLC analysis was performed on Agilent 1100 instrument (Santa Clara, CA, USA) coupled with a diode array detector (DAD) on Luna C18 column (4.6 × 150 mm, 3 μm). The gradient method was used for separation. Mobile phase A consisted of water, acetonitrile, and glacial acetic acid in the volume ratio of 90:10:0.1, while mobile phase B contained the same solvents in the ratio 10:90:0.1. The following gradient timetable was used (t/min, %B): (0, 0), (2, 0), (13, 55), (14, 0), (20, 0). The flow rate was 1 mL/min, and chromatograms were recorded at 254 nm. Volume of incubation injected to the column was 15 µL. […] The amount of generated product (acetaminophen) was determined as the area under the curve based on the calibration curve of the standard.
# (§2) Three types of experiments were conducted to determine metabolism dependent inhibition, time dependent inhibition, and direct inhibition of CYP1A2, CYP2A6, CYP2C8, and CYP2D6 enzymes.
# (§3) To determine metabolism dependent inhibition (MDI assay), the flavonoid was first preincubated with the enzyme with the addition of the generating system for 30 min, after which the marker substrate was added to determine residual enzyme activity (as described above for each enzyme).
# (§4) If metabolism dependent inhibition was determined, time dependent inhibition and direct inhibition were tested. Time dependent inhibition (TDI assay) was assessed by preincubating the flavonoid and enzyme, without the generating system, after which residual activity was determined by adding the NADPH generating system along with the substrate (as described above for each enzyme).
# (§5) The direct inhibition assay (DI assay) was conducted without preincubation, i.e., the NADPH generating system was added to the incubation mixture containing flavonoid and substrate following the experimental set-up described above for each individual cytochrome P450 enzyme.
# (§6) Pure time dependent inhibitors require time to interact with the enzyme. Thus, TDI inhibitors will show a reduction of enzyme activity in assays with preincubations, i.e., the MDI and TDI assays, but not in the DI assay (no preincubation). […] DI inhibitors will reduce enzyme activity in all three assays (MDI, TDI, and DI).
# (§7) All incubations were conducted in triplicate. The results are expressed as the residual activity of the enzyme, i.e., the percentage of product generated in incubation with the addition of flavonoid in ratio to the control without flavonoid.
# CYP2A6 = biological target: T2, CYP2A6 (Homo sapiens, UniProt P11509); experiment: CYP2A6 enzyme activity, coumarin 7-hydroxylation (MDI, TDI, DI assays), recombinant baculosomes
# T2 sequence (P11509 1-494): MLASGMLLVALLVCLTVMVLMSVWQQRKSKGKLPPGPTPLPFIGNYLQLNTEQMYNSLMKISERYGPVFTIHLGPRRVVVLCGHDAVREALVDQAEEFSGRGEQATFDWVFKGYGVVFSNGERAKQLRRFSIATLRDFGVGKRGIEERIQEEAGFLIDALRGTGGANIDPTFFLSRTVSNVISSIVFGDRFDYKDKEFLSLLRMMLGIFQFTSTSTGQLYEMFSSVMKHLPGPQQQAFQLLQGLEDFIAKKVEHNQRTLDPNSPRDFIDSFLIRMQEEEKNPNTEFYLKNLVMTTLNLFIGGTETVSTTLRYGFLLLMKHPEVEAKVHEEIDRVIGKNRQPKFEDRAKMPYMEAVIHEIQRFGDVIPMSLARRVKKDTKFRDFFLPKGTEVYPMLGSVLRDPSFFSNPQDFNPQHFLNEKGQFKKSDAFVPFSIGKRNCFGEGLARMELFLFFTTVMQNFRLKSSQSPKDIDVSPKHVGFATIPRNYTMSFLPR
# Method: as §1
# The aromatic hydroxylation of coumarin at the position 7 was used as a marker reaction for CYP2A6. The incubation conditions were the same as for CYP1A2 enzyme (vide supra) unless otherwise stated. The final concentration of coumarin was 10 µM, while the incubation time was extended to 30 min.
# HPLC-DAD analysis was conducted on the same system as the CYP1A2 enzyme with the following modifications: The gradient timetable (t/min, %B) was (0, 20), (1.5, 20), (10, 70), (11, 20), (17, 20), and the detection wavelength was 330 nm. The retention time of the substrate (coumarin) was 7.5 min, while the product (7-hydroxycoumarin) was detected at 4.8 min. The amount of generated product was determined as the area under the curve based on the calibration curve of the standard.
# as §2, §3, §4, §5, §6
# as §7, with “flavonoid. The statistical significance was tested with Student’s t-test in the program R (The R Project for Statistical Computing, Vienna, Austria).” for “flavonoid.”
smiles,measurement,setting,value
COc1cc(-c2oc3cc(O)cc(O)c3c(=O)c2O)ccc1O [isorhamnetin],Inhibition of CYP3A4 metabolic activity,CYP3A4,inhibition
same,Ki,CYP1A2 [1],140 nM
same,Inhibition of CYP1A2 activity,CYP1A2 [2]; 1 µM flavonoid,inhibited
same,Type of CYP1A2 inhibition,"CYP1A2 [2]; concluded from MDI, TDI, DI assays at 1 µM",reversible inhibitor
same,"activity at 15 min, 1 µM","CYP1A2 [2]; human, pH 7.4",8 ± 2%
same,Inhibition of CYP2A6 enzyme activity,CYP2A6; 1 µM flavonoid,inhibited
same,"inhibition at 30 min, 1 µM","CYP2A6; human, pH 7.4",16 ± 5%
